In patent publication US7307088B2, “Substituted anthranilic amide derivatives and methods of use” (Amgen Inc., priority 2002, dated 2007):
pIC50: −log10 of the molar value.

test system: VEGF-stimulated HUVEC proliferation (Human Umbilical Vein Endothelial cells); assay: HUVEC Proliferation Assay; format: cell-based; settings: 72 h, CyQuant dye, read-out: inhibited VEGF-stimulated HUVEC proliferation at a level (IC50 values determined)
Experimental: Human Umbilical Vein Endothelial cells are purchased from Clonetics, Inc., as cryopreserved cells harvested from a pool of donors. These cells, at passage 1, are thawed and expanded in EBM-2 complete medium, until passage 2 or 3. The cells are trypsinized, washed in DMEM+10% FBS+antibiotics, and spun at 1000 rpm for 10 min. Prior to centrifugation of the cells, a small amount is collected for a cell count. After centrifugation, the medium is discarded, and the cells are resuspended in the appropriate volume of DMEM+10% FBS+antibiotics to achieve a concentration of 3×10^5 cells/mL. Another cell count is performed to confirm the cell concentration. The cells are diluted to 3×10^4 cells/mL in DMEM+10% FBS+antibiotics, and 100 μL of cells are added to a 96-well plate. The cells are incubated at 37° C. for 22 h.
Prior to the completion of the incubation period, compound dilutions are prepared. Five-point, five-fold serial dilutions are prepared in DMSO, at concentrations 400-fold greater than the final concentrations desired. 2.5 μL of each compound dilution are diluted further in a total of 1 mL DMEM+10% FBS+antibiotics (400× dilution). Medium containing 0.25% DMSO is also prepared for the 0 μM compound sample. At the 22 h timepoint, the medium is removed from the cells, and 100 μL of each compound dilution is added. The cells are incubated at 37° C. for 2-3 h.
During the compound pre-incubation period, the growth factors are diluted to the appropriate concentrations. Solutions of DMEM+10% FBS+antibiotics, containing either VEGF or bFGF at the following concentrations: 50, 10, 2, 0.4, 0.08, and 0 ng/mL are prepared. For the compound-treated cells, solutions of VEGF at 550 ng/mL or bFGF at 220 ng/mL for 50 ng/mL or 20 ng/mL final concentrations, respectively, are prepared since 10 μL of each will be added to the cells (110 μL final volume). At the appropriate time after adding the compounds, the growth factors are added. VEGF is added to one set of plates, while bFGF is added to another set of plates. For the growth factor control curves, the media on wells B4-G6 of plates 1 and 2 are replaced with media containing VEGF or bFGF at the varying concentrations (50-0 ng/mL). The cells are incubated at 37° C. for an additional 72 h.
At the completion of the 72 h incubation period, the medium is removed, and the cells are washed twice with PBS. After the second wash with PBS, the plates are tapped gently to remove excess PBS, and the cells are placed at −70° C. for at least 30 min. The cells are thawed and analyzed using the CyQuant fluorescent dye (Molecular Probes C-7026), following the manufacturer's recommendations. The plates are read on a Victor/Wallac 1420 workstation at 485 nm/530 nm (excitation/emission). Raw data are collected and analyzed using a 4-parameter fit equation in XLFit. IC50 values are then determined.

Compound	pIC50
CC(=O)N1CC(C)(C)c2ccc(NC(=O)c3ccccc3NCc3ccc(F)cc3)cc21 [Example 3, N-(1-Acetyl-3,3-dimethyl-2,3-dihydro-1H-indol-6-yl)-2-(4-fluoro-benzylamino)-benzamide]	> 6.00
CN1CCN(C(=O)N2CC(C)(C)c3ccc(NC(=O)c4ccccc4NCc4ccc(F)cc4)cc32)CC1 [Example 8, N-[3,3-Dimethyl-1-(4-methyl-piperazine-1-carbonyl)-2,3-dihydro-1H-indol-6-yl]-2-(4-fluoro-benzylamino)-benzamide]	> 6.00
CC(=O)N1CC(C)(C)c2ccc(NC(=O)c3ccccc3NCc3cc[n+]([O-])cc3)cc21 [Example 10, N-(1-Acetyl-3,3-dimthyl-2,3-dihydro-1H-indol-6-yl)-2-[(1-oxy-pyridin-4-ylmethyl)-amino]-benzamide]	> 6.00
CC(=O)N1Cc2cc(NC(=O)c3ccccc3NCc3ccnc4ccccc34)ccc2C(C)(C)C1 [Example 13, N-(2-Acetyl-4,4-dimthyl-1,2,3,4-tetrahydro-isoquinolin-7-yl)-2-[(quinolin-4-ylmethyl)-amino]-benzamide]	> 6.00
CC1(C)CNCc2cc(NC(=O)c3ccc(F)cc3NCc3ccc(F)cc3)ccc21 [Example 107, N-(4,4-Dimethyl-1,2,3,4-tetrahydro-isoquinolin-7-yl)-4-fluoro-6-(4-fluoro-benzylamino)-benzamide]	> 6.00
CC1(C)CNCc2cc(NC(=O)c3cc(F)c(F)cc3NCc3ccc(F)cc3)ccc21 [Example 108, N-(4,4-Dimethyl-1,2,3,4-tetrahydro-isoquinolin-7-yl)-3,4-difluoro-6-(4-fluoro-benzylamino)-benzamide]	> 6.00
CC1(C)CNCc2cc(NC(=O)c3ccccc3NCc3c[nH]c4ncccc34)ccc21 [Example 113, N-(4,4-Dimethyl-1,2,3,4-tetrahydro-isoquinolin-7-yl)-2-[(1H-pyrrolo [2,3-b]pyridin-3-ylmethyl)-amino]-benzamide]	> 6.00
CC1(C)CNCc2cc(NC(=O)c3ccccc3NCc3cccc4nccnc34)ccc21 [Example 124, N-(4,4-Dimethyl-1,2,3,4-tetrahydro-isoquinolin-7-yl)-2-[(quinoxalin-5-ylmethyl)-amino]-benzamide]	> 6.00
CC(Nc1ccccc1C(=O)Nc1ccc2c(c1)CN(C(=O)OC(C)(C)C)CC2(C)C)c1ccnc(N)n1 (stereo not drawn) [Example 126, tert-Butyl 7-{2-[1-(2-amino-pyrimidin-4-yl)-ethylamino]-benzoylamino}-4,4-dimethyl-3,4-dihydro-1H-isoquinoline-2-carboxylate]	> 6.00
CC(Nc1ccccc1C(=O)Nc1ccc2c(c1)CNCC2(C)C)c1ccnc(N)n1 (stereo not drawn) [Example 127, 2-[1-(2-Amino-pyrimidin-4-yl)-ethylamino]-N-(4,4-dimethyl-1,2,3,4-tetrahydro-isoquinolin-7-yl)-benzamide]	> 7.00
CNc1nccc([C@H](C)Nc2ccccc2C(=O)Nc2ccc3c(c2)CNCC3(C)C)n1 [Example 130, (S)—N-(4,4-Dimethyl-1,2,3,4-tetrahydro-isoquinolin-7-yl)-2-[1-(2-methylamino-pyrimidin-4-yl)-ethylamino]-benzamide]	> 6.00
CNc1nccc([C@@H](C)Nc2ccccc2C(=O)Nc2ccc3c(c2)N(C(C)=O)CC32CC2)n1 [Example 132, N-(1-Acetyl-1′,2′-dihydrospiro[cyclopropane-1,3′-[3H]indol]-6′-yl)-2-[[(1R)-1-[2-(methylamino)-4-pyrimidinyl]ethyl]amino]-benzamide]	> 6.00
